Our source for the melting point values is a melting point compilation (Tetko et al.; mined from patent text by program, amines drawn as free bases though some values may be those of a salt).

Broadly, the melting point is the temperature, or range, at which the solid turns liquid.

Regarding `CC(CN1C(=O)c2ccccc2C1=O)OS(C)(=O)=O` (configuration not stated), the melting point fell in the range of 111 to 121 °C.
Turning to `Cc1cccc2[nH]c(=O)n(CCCN3CC=C(c4ccc(Cl)cc4)CC3)c(=O)c12`, the melting point lay within 175 to 178 °C.
As to `COC(=O)[C@H]1CN(c2ccc3c(c2)sc(=O)n3C(C)C)C(=O)O1`, the melting point was 161 to 162 °C.
The result for `COC(=O)c1ccc(CC(C)NCC(O)c2ccc(O)c(CO)c2)cc1OC` (configuration not stated) reads 64 to 71 °C; that for `CC(=O)OC/C(=C(\C(=O)N(C)CC(C)(C)S)c1ccc(F)cc1)c1ccc(S(C)(=O)=O)cc1`, 45 to 47 °C.
The result for `CN(C(=O)CCN1CCC(C(O)(c2ccc(F)cc2)c2ccc(F)cc2)CC1)c1ccccc1` reads 73 to 75 °C; that for `COc1ccc2ncc(C#N)c(Nc3ccc4nn[nH]c4c3)c2c1`, greater than 250 °C.
`Cn1cnc2c(NC3CCCC3)ncnc21` had a melting point of 108 to 109 °C.
On to `C=C(C#N)S(=O)(=O)c1ccc(OC(F)(F)C(Cl)Cl)cc1`, for which the melting point lay within 89 to 90 °C.
Take `CCCCn1ncc(/C=C(\Cc2cc3c(cc2OC)CCO3)C(=O)O)c1-c1ccc(Cl)cc1OCc1c(Cl)cccc1C(=O)O`: the melting point lay within 114 to 116 °C.
Consider `Cc1c(-c2ccc(O)c(Cl)c2)sc(C=O)c1-c1ccc(O)c(F)c1`, for which the melting point is 227 to 229 °C.
The value for `COc1ccc(-c2nc(C)nn2-c2ccc(S(N)(=O)=O)cn2)cc1` was 191 to 192 °C.
Take `Nc1c2c(nc3ccc(F)cc13)CCCC2`: the melting point lay within 229 to 230 °C.
Compound `CC(C)n1nc(-c2c(NC(C)(C)C)nc(N)nc2-c2ccccc2)ccc1=O` showed a melting point of 202 to 204 °C.
The value for `CC(=NOCc1ccccc1)C(C)Oc1ccccc1NC(=O)c1cccnc1Cl` (configuration not stated) was 53 to 55 °C; that for `O=Cc1cc2cc(Cl)c(Cl)cc2nc1Cl` was 190 to 191 °C.
`C=CC(C)(C)OC(=O)c1c(C)nc2c(cnn2CCCCC)c1N` yielded a melting point of 77.7 to 78.5 °C.
The result for `COc1ccccc1N1CCN(CCCCOc2ccc(-c3cn4cccnc4n3)cc2)CC1` reads 151 to 153 °C; that for `CCOc1ccc2[nH]c(=O)n(C3Cc4ccccc4C3)c2c1`, 151 °C.
The result for `O=S(=O)(NC(CO)CO)c1ccc(Br)s1` reads 80 °C.
The result for `COc1ccc(-c2nc(Cn3cnnc3)nc3cc(OC)c(OC)cc23)cc1` reads 212 to 213 °C; that for `CC(=Cc1ccc(C)cc1C)c1ccc2c(c1)C(C)(C)CCC2(C)C`, 54 to 56 °C.
`CN1C(=O)[C@@](NC(=O)Nc2cccc(N(C)c3nnn[nH]3)c2)(C2CCCCC2)N=Cc2ccccc21` showed a melting point of 222 to 225 °C.
In the case of `N#CC(c1ccnc(OCc2ccccc2)n1)c1nc2ccccc2s1` (configuration not stated), the melting point is 196 to 198 °C.
The value for `CNC(=O)c1ccccc1Nc1nc(Nc2ccc3c(c2)CCCC(=O)N3C)ncc1Cl` was 244 to 246 °C; that for `O=C(COc1ccc2ccccc2c1)NC(Cc1ccccc1)C(=O)CSCc1ccco1` (configuration not stated) was 115 to 118 °C; that for `CC(/C=C/c1ccccc1-c1ccc2c(c1)C(C)(C)CCC2(C)C)=C\C(=O)O` was 178 to 179 °C.
The value for `CC(CCc1c[nH]c2c(F)cc(F)cc12)N(CC1CC1)C1COc2c(F)ccc(C(N)=O)c2C1` (configuration not stated) was 175 to 180 °C; that for `CC(=O)C1C(=O)N(CC2CC2)C(=O)N(c2ccccc2)C1=O` (configuration not stated) was 91 to 95 °C; that for `ON=Cc1ccc2c(c1)COC2c1ccc(F)cc1` (configuration not stated) was 158 to 159 °C.
Compound `CCN1c2ncccc2C(=NOC)Nc2c(C)cc(C)nc21` had a melting point of 164 to 166 °C.
Regarding `CC(=O)Nn1c(=S)[nH]c2cc(C(=O)O)ccc21`, the melting point was in the range of 334 to 338 °C.
The result for `COC(=O)c1ccc(OCCNC(=O)C2Cc3ccccc3N2S(=O)(=O)c2ccc(-c3cccc(C(F)(F)F)c3)cc2)c(C(F)(F)F)c1` (configuration not stated) reads 92 to 98 °C.
`N#CNC(=NCCc1ccccc1Cl)c1cncc(NC(=O)c2ccccc2)c1` had a melting point of 220 °C.
The value for `CCCN1C(=O)C(NC(=O)Nc2cccc(C)c2)N=C(N(C)C2CCCCC2)c2ccccc21` (single isomer, unassigned; (+)) was 126 to 127 °C; that for `O=C1c2ccccc2C(=O)N1Nc1ccc(/C=C/C(c2cc(Cl)c(Cl)c(Cl)c2)C(F)(F)F)cc1` (configuration not stated) was 187 to 189 °C.
The result for `O=C1C[C@@H]2CCCC[C@@H]2N1O` (relative stereo) reads 85 to 86 °C; that for `CS(=O)c1ccc(C(=O)CCCCCC#N)cc1` (configuration not stated), 58.5 to 60.5 °C; that for `CN(C)C(=O)NC1CCCc2sccc21` (configuration not stated), 117 to 120 °C.
The value for `Cc1cc(C)nc(NC(=O)NS(=O)(=O)c2c([N+](=O)[O-])ccc3c2CCC3)n1` was 172 °C; that for `Cc1cc(C(=N)NO)ccc1-c1cccc(-c2nc3cc(C(=N)NO)ccc3[nH]2)c1` was 295 to 297 °C.
In the case of `Nc1sc2c(c1C(=O)c1ccc(Cl)cc1)CCN(C(=O)Nc1ccccc1)C2`, the melting point is 216 to 217 °C.
`Cc1c(C(F)(F)F)cnn(-c2cc(OCC=O)c(Cl)cc2F)c1=O` registered a melting point of 107 °C.
In the case of `O=C(O)Cc1ccc(Oc2ccc3c(c2)S(=O)(=O)NC2CCCN32)cc1` (configuration not stated), the melting point lay in the range of 166 to 169 °C.
The value for `Cc1c(OCCNC(=O)OC(C)(C)C)noc1-c1ccccc1` was 118 to 120 °C; that for `CCCCCCCN(C(=O)Nc1ccccc1CCc1cc(C(C)(C)C)c(O)c(C(C)(C)C)c1)C1CCCCCC1` was 70 to 72 °C; that for `COc1ccc(NC(=O)c2ccc(Cl)c(Cl)c2)cc1NCc1cccc(F)c1` was 197 to 199 °C.
For `CS(=O)(=O)N(CCc1ccc(Cl)cc1)Cc1cccnc1`, the melting point fell in the range of 77 to 78 °C.
The value for `CCc1nc2ncnn2c(N[C@H]2CC[C@@H](C(C)(C)C)CC2)c1Cl` was 120 to 122 °C; that for `O=C(CCn1ccnc1)N1c2ccccc2Sc2ccccc21` was 150 to 152 °C; that for `CC(C)(C#N)c1ccc(C(=O)CCCCl)cc1` was 79 to 80 °C.
`CCOC(=O)C=Cc1c(N)nc(C)c(NC(C)=O)c1C`: the melting point was 204 to 205 °C.
On to `O=C(O)Cc1csc(NC(=O)C(Oc2ccc(F)cc2)c2ccc(S(=O)(=O)C3CC3)cc2)n1` (configuration not stated), for which the melting point lay within 72 to 73 °C.
The value for `CCCCCN1C(=O)C2(COc3cc(-c4ccncc4)ccc32)c2ccccc21` (configuration not stated) was 107 to 110 °C.
The result for `CCOC(=O)C1=CCCCC1S(=O)(=O)Nn1cccc1` (configuration not stated) reads 85 to 86 °C.
Regarding `COC1=CC(Cl)(OC)NC(C(O)CC(=O)Nc2ccccc2)=N1` (configuration not stated), the melting point lay within 121 to 123 °C.
On to `Cc1nc(O)c(Br)cc1Br`, for which the melting point was greater than 225 °C.
The result for `CN1CCCCC1CCc1ccccc1NC(=O)c1ccc(O)cc1` (configuration not stated) reads 178 to 182 °C.
The compound `c1cncc(CCc2ccc(C3OCCO3)cc2)c1` came in with a melting point of 46 to 47 °C.
The value for `O=C(Nc1cnc(OCCO)c(NC(=O)OCCCl)c1)OCCCl` was 176 to 178 °C; that for `C=CCN1CCN(C(=O)Cn2sc3ccccc3c2=O)CC1` was 119 to 120 °C; that for `CN(C)C(=O)N1CCC(Nc2ncc3ncnc(Nc4ccc(F)c(Cl)c4)c3n2)CC1` was 187 to 188 °C.
